The text below walks through data of PMC5218480 (PLoS ONE, 2017).

For the experiment, the system named is MV-4-11 cells. Put plainly: Gene expression microarray analysis (Affymetrix PrimeView) and GSEA. It counts as cell-based, human. Also noted: RFU PODN (11730768_x_at) / Fold change /veh PODN (11730768_x_at) / RFU LINC00158 (11744669_a_at) / Fold change /veh LINC00158 (11744669_a_at) / RFU DUSP10 (11751237_a_at) / Fold change /veh DUSP10 (11751237_a_at) / RFU ID3 (11757404_x_at) / Fold change /veh ID3 (11757404_x_at) / RFU PLEKHG5 (11737974_s_at) / Fold change /veh PLEKHG5 (11737974_s_at) / RFU LRRC4B (11730491_at) / Fold change /veh LRRC4B (11730491_at) / RFU GIMAP4 (11747438_a_at) / Fold change /veh GIMAP4 (11747438_a_at) / RFU KRT8 (11758183_x_at) / Fold change /veh KRT8 (11758183_x_at) / RFU CNN1 (11734310_a_at) / Fold change /veh CNN1 (11734310_a_at) / RFU VPS37D (11726825_at) / Fold change /veh VPS37D (11726825_at) / RFU C10orf10 (11716522_x_at) / Fold change /veh C10orf10 (11716522_x_at) / RFU KIR2DL2 /// KIR2DL4 /// KIR2DL5A /// KIR2DL5B /// KIR2DS1 /// KIR2DS2 /// KIR2DS3 /// KIR2DS4 /// KIR3DL3 /// KIR3DL3 /// KIR3DS1 (11738374_at) / Fold change /veh KIR2DL2 /// KIR2DL4 /// KIR2DL5A /// KIR2DL5B /// KIR2DS1 /// KIR2DS2 /// KIR2DS3 /// KIR2DS4 /// KIR3DL3 /// KIR3DL3 /// KIR3DS1 (11738374_at) / RFU C1QL1 (11718748_at) / Fold change /veh C1QL1 (11718748_at) / RFU TMPRSS4 (11747572_a_at) / Fold change /veh TMPRSS4 (11747572_a_at) / RFU HAMP (11756126_x_at) / Fold change /veh HAMP (11756126_x_at) / RFU RNFT2 (11725882_a_at) / Fold change /veh RNFT2 (11725882_a_at) / RFU NR4A2 (11747474_a_at) / Fold change /veh NR4A2 (11747474_a_at) / RFU ABCC12 (11746883_a_at) / Fold change /veh ABCC12 (11746883_a_at) / RFU TMEM136 (11760407_x_at) / Fold change /veh TMEM136 (11760407_x_at) / RFU CLDN22 /// WWC2 (11732394_at) / Fold change /veh CLDN22 /// WWC2 (11732394_at) / RFU HLA-DPB1 (11760878_x_at) / Fold change /veh HLA-DPB1 (11760878_x_at) / RFU SPINT1 (11716480_a_at) / Fold change /veh SPINT1 (11716480_a_at) / RFU GAP43 (11754022_s_at) / Fold change /veh GAP43 (11754022_s_at) / RFU A4GNT (11735810_at) / Fold change /veh A4GNT (11735810_at) / RFU PRB3 (11715151_x_at) / Fold change /veh PRB3 (11715151_x_at) / RFU TUBB4B (11761932_at) / Fold change /veh TUBB4B (11761932_at) / RFU CAPN14 (11732068_a_at) / Fold change /veh CAPN14 (11732068_a_at) / RFU TMCC2 (11721928_a_at) / Fold change /veh TMCC2 (11721928_a_at) / RFU IRGQ (11745062_a_at) / Fold change /veh IRGQ (11745062_a_at) / RFU FAM174B (11720279_a_at) / Fold change /veh FAM174B (11720279_a_at) / RFU TMPRSS4 (11748680_a_at) / Fold change /veh TMPRSS4 (11748680_a_at) / RFU FAM212B (11763350_a_at) / Fold change /veh FAM212B (11763350_a_at) / RFU PLEKHG5 (11743358_a_at) / Fold change /veh PLEKHG5 (11743358_a_at) / RFU ZSCAN30 (11745921_a_at) / Fold change /veh ZSCAN30 (11745921_a_at) / RFU CMKLR1 (11741424_a_at) / Fold change /veh CMKLR1 (11741424_a_at) / RFU LOC101060620 /// MAPK8IP1 (11723275_at) / Fold change /veh LOC101060620 /// MAPK8IP1 (11723275_at) / RFU SPTSSB (11747773_x_at) / Fold change /veh SPTSSB (11747773_x_at) / RFU PRSS12 (11739890_at) / Fold change /veh PRSS12 (11739890_at) / RFU BIN1 (11741810_x_at) / Fold change /veh BIN1 (11741810_x_at) / RFU WNT11 (11732464_a_at) / Fold change /veh WNT11 (11732464_a_at) / RFU C10orf10 (11716521_a_at) / Fold change /veh C10orf10 (11716521_a_at) / RFU C5orf56 (11738089_at) / Fold change /veh C5orf56 (11738089_at) / RFU CYB561 (11721691_x_at) / Fold change /veh CYB561 (11721691_x_at) / RFU ANKRD19P (11752326_a_at) / Fold change /veh ANKRD19P (11752326_a_at) / RFU OR2T12 /// OR2T33 /// OR2T8 (11738714_s_at) / Fold change /veh OR2T12 /// OR2T33 /// OR2T8 (11738714_s_at) / RFU VCAN (11748164_a_at) / Fold change /veh VCAN (11748164_a_at) / RFU JSRP1 (11732532_at) / Fold change /veh JSRP1 (11732532_at) / RFU KRTAP10-11 (11738290_x_at) / Fold change /veh KRTAP10-11 (11738290_x_at) / RFU MYO3A (11730013_a_at) / Fold change /veh MYO3A (11730013_a_at) / RFU EBF3 (11725865_a_at) / Fold change /veh EBF3 (11725865_a_at) / RFU CAMK2N1 (11719241_x_at) / Fold change /veh CAMK2N1 (11719241_x_at) / RFU C5orf56 (11738088_a_at) / Fold change /veh C5orf56 (11738088_a_at) / RFU OLFML3 (11715873_a_at) / Fold change /veh OLFML3 (11715873_a_at) / RFU LOC100653217 /// NTM (11731650_a_at) / Fold change /veh LOC100653217 /// NTM (11731650_a_at) / RFU MAPK11 (11762145_a_at) / Fold change /veh MAPK11 (11762145_a_at) / RFU FIZ1 (11724087_x_at) / Fold change /veh FIZ1 (11724087_x_at) / RFU OASL (11726364_x_at) / Fold change /veh OASL (11726364_x_at) / RFU SOX15 (11748057_x_at) / Fold change /veh SOX15 (11748057_x_at) / RFU CD79A (11719716_a_at) / Fold change /veh CD79A (11719716_a_at) / RFU HIST1H1D (11736915_at) / Fold change /veh HIST1H1D (11736915_at) / RFU CASKIN2 (11723855_a_at) / Fold change /veh CASKIN2 (11723855_a_at) / RFU LOC730098 (11760151_x_at) / Fold change /veh LOC730098 (11760151_x_at) / RFU OR4N2 (11742367_at) / Fold change /veh OR4N2 (11742367_at) / RFU PRRT2 (11749266_a_at) / Fold change /veh PRRT2 (11749266_a_at) / RFU SNX32 (11753110_a_at) / Fold change /veh SNX32 (11753110_a_at) / RFU CDHR5 (11726645_a_at) / Fold change /veh CDHR5 (11726645_a_at) / RFU RCAN1 (11760418_a_at) / Fold change /veh RCAN1 (11760418_a_at) / RFU FAM167A (11723789_a_at) / Fold change /veh FAM167A (11723789_a_at) / RFU FAM26E (11764081_at) / Fold change /veh FAM26E (11764081_at) / RFU ISYNA1 (11749810_s_at) / Fold change /veh ISYNA1 (11749810_s_at) / RFU ACY1 (11761880_at) / Fold change /veh ACY1 (11761880_at) / RFU 11764098_at / Fold change /veh 11764098_at / RFU SAMD14 (11745864_x_at) / Fold change /veh SAMD14 (11745864_x_at) / RFU NPB (11741838_a_at) / Fold change /veh NPB (11741838_a_at) / RFU TMPRSS6 (11731388_a_at) / Fold change /veh TMPRSS6 (11731388_a_at) / RFU KRTAP10-2 (11738614_at) / Fold change /veh KRTAP10-2 (11738614_at) / RFU ARHGAP8 /// PRR5-ARHGAP8 (11727945_x_at) / Fold change /veh ARHGAP8 /// PRR5-ARHGAP8 (11727945_x_at) / RFU KRTAP5-7 /// NADSYN1 (11734609_at) / Fold change /veh KRTAP5-7 /// NADSYN1 (11734609_at) / RFU RASL12 (11751679_a_at) / Fold change /veh RASL12 (11751679_a_at) / RFU CDKN2B (11736163_a_at) / Fold change /veh CDKN2B (11736163_a_at) / RFU PRF1 (11729649_at) / Fold change /veh PRF1 (11729649_at) / RFU, ZNF638 /// ZNF638-IT1 / Fold change vs veh, ZNF638 /// ZNF638-IT1 / RFU, PANK3 / Fold change vs veh, PANK3 / RFU, SH3YL1 / Fold change vs veh, SH3YL1 / RFU, ZEB2 / Fold change vs veh, ZEB2 / RFU, NRIP1 / Fold change vs veh, NRIP1 / RFU, PTTG1IP / Fold change vs veh, PTTG1IP / RFU, CAPN2 / Fold change vs veh, CAPN2 / RFU, MED14 / Fold change vs veh, MED14 / RFU, SNORA58 / Fold change vs veh, SNORA58 / RFU, C1orf63 / Fold change vs veh, C1orf63 / RFU, LRRFIP1 / Fold change vs veh, LRRFIP1 / RFU, NDUFAF7 / Fold change vs veh, NDUFAF7 / RFU, SLC12A2 / Fold change vs veh, SLC12A2 / RFU, IBTK / Fold change vs veh, IBTK / RFU, ESF1 / Fold change vs veh, ESF1 / Fold change vs veh, TMEM50B / RFU, TAOK1 / Fold change vs veh, TAOK1 / RFU, ACBD3 / Fold change vs veh, ACBD3 / RFU, TMA16 / Fold change vs veh, TMA16 / RFU, RWDD3 / Fold change vs veh, RWDD3 / RFU, BCAT1 / Fold change vs veh, BCAT1 / RFU, EDEM3 / Fold change vs veh, EDEM3 / RFU, TMEM33 / Fold change vs veh, TMEM33 / RFU, WDR75 / Fold change vs veh, WDR75 / RFU, AHCTF1 / Fold change vs veh, AHCTF1 / RFU, TFRC / Fold change vs veh, TFRC / RFU, ZDHHC17 / Fold change vs veh, ZDHHC17 / RFU, NOM1 / Fold change vs veh, NOM1 / RFU, ARL8B / Fold change vs veh, ARL8B / RFU, ZBTB11 / Fold change vs veh, ZBTB11 / RFU, TAMM41 / Fold change vs veh, TAMM41 / RFU, KIAA1704 /// LOC100996395 / Fold change vs veh, KIAA1704 /// LOC100996395 / RFU, ING1 / Fold change vs veh, ING1 / RFU, TRMT61B / Fold change vs veh, TRMT61B / RFU, FUBP3 / Fold change vs veh, FUBP3 / RFU, TP53 / Fold change vs veh, TP53 / RFU, TNKS2 / Fold change vs veh, TNKS2 / RFU, ZFP14 / Fold change vs veh, ZFP14 / RFU, ACTR2 / Fold change vs veh, ACTR2 / RFU, PPP3R1 / Fold change vs veh, PPP3R1 / RFU, PIK3R1 / Fold change vs veh, PIK3R1 / RFU, HNRNPA1 / Fold change vs veh, HNRNPA1 / RFU, RNF170 / Fold change vs veh, RNF170 / RFU, ZNF28 / Fold change vs veh, ZNF28 / RFU, RNGTT / Fold change vs veh, RNGTT / RFU, OGT / Fold change vs veh, OGT / RFU, BRD1 / Fold change vs veh, BRD1 / RFU, MARS / Fold change vs veh, MARS / RFU, ZNF655 / Fold change vs veh, ZNF655 / RFU, FAHD1 / Fold change vs veh, FAHD1 / RFU, BDP1 / Fold change vs veh, BDP1 / RFU, LRRCC1 / Fold change vs veh, LRRCC1 / RFU, ARID1A / Fold change vs veh, ARID1A / RFU, ZNF146 / Fold change vs veh, ZNF146 / RFU, ZNF330 / Fold change vs veh, ZNF330 / RFU, GPN3 / Fold change vs veh, GPN3 / RFU, C9orf123 / Fold change vs veh, C9orf123 / RFU, N4BP2L2 / Fold change vs veh, N4BP2L2 / RFU, ARFIP1 / Fold change vs veh, ARFIP1 / RFU, FAM179B / Fold change vs veh, FAM179B / RFU, BCL10 / Fold change vs veh, BCL10 / RFU, UHRF1BP1L / Fold change vs veh, UHRF1BP1L / RFU, BET1 / Fold change vs veh, BET1 / RFU, CNOT2 / Fold change vs veh, CNOT2 / RFU, ZNF268 / Fold change vs veh, ZNF268 / Fold change vs veh, ZNF507 / RFU, DGCR2 / Fold change vs veh, DGCR2 / RFU, WDSUB1 / Fold change vs veh, WDSUB1 / Fold change vs veh, HSP90B1 /// MIR3652 / RFU, ADSS / Fold change vs veh, ADSS / RFU, GK / Fold change vs veh, GK / RFU, ZNF148 / Fold change vs veh, ZNF148 / RFU, TAF9 / Fold change vs veh, TAF9 / RFU, SLC1A5 / Fold change vs veh, SLC1A5 / RFU, SLMO2 / Fold change vs veh, SLMO2 / RFU, ABCC4 / Fold change vs veh, ABCC4 / RFU, LOC101060439 /// RAP1B / Fold change vs veh, LOC101060439 /// RAP1B / RFU, RFX7 / Fold change vs veh, RFX7 / RFU, GTPBP10 / Fold change vs veh, GTPBP10 / RFU, CNEP1R1 / Fold change vs veh, CNEP1R1 / RFU, BIVM-ERCC5 /// ERCC5 / Fold change vs veh, BIVM-ERCC5 /// ERCC5 / RFU, ILF3 / Fold change vs veh, ILF3 / RFU 11762660_at / Fold change /veh 11762660_at / RFU VCAN (11757783_s_at) / Fold change /veh VCAN (11757783_s_at) / RFU DDX43 (11728927_at) / Fold change /veh DDX43 (11728927_at) / RFU KRT8 (11758188_x_at) / Fold change /veh KRT8 (11758188_x_at) / RFU NKD1 (11759106_at) / Fold change /veh NKD1 (11759106_at) / RFU SRD5A1 (11742802_a_at) / Fold change /veh SRD5A1 (11742802_a_at) / RFU TPSAB1 /// TPSB2 (11721975_s_at) / Fold change /veh TPSAB1 /// TPSB2 (11721975_s_at) / RFU GSTM3 (11746129_a_at) / Fold change /veh GSTM3 (11746129_a_at) / RFU IL23R (11737362_x_at) / Fold change /veh IL23R (11737362_x_at) / RFU TMEM51 (11727254_a_at) / Fold change /veh TMEM51 (11727254_a_at) / RFU PIWIL2 (11732686_x_at) / Fold change /veh PIWIL2 (11732686_x_at) / RFU ORM1 (11744905_x_at) / Fold change /veh ORM1 (11744905_x_at) / RFU CCDC152 (11743942_at) / Fold change /veh CCDC152 (11743942_at) / RFU ECM1 (11717891_a_at) / Fold change /veh ECM1 (11717891_a_at) / RFU IL23R (11748794_a_at) / Fold change /veh IL23R (11748794_a_at) / RFU TNFAIP8L3 (11732012_x_at) / Fold change /veh TNFAIP8L3 (11732012_x_at) / RFU MBOAT4 (11741988_at) / Fold change /veh MBOAT4 (11741988_at) / RFU 11764193_at / Fold change /veh 11764193_at / RFU TMEM53 (11763286_at) / Fold change /veh TMEM53 (11763286_at) / RFU MAGEB2 (11727129_at) / Fold change /veh MAGEB2 (11727129_at) / RFU TMEM200A (11744735_a_at) / Fold change /veh TMEM200A (11744735_a_at) / RFU CCDC152 (11751479_a_at) / Fold change /veh CCDC152 (11751479_a_at) / RFU FAM211A (11726209_a_at) / Fold change /veh FAM211A (11726209_a_at) / RFU RGS16 (11746705_a_at) / Fold change /veh RGS16 (11746705_a_at) / RFU VCAN (11755009_s_at) / Fold change /veh VCAN (11755009_s_at) / RFU RHOB (11743442_s_at) / Fold change /veh RHOB (11743442_s_at) / RFU RGS16 (11720943_a_at) / Fold change /veh RGS16 (11720943_a_at) / RFU RGS16 (11720944_at) / Fold change /veh RGS16 (11720944_at) / RFU, VPS4B / Fold change vs veh, VPS4B / RFU, CREB1 / Fold change vs veh, CREB1 / RFU, DNAJC13 / Fold change vs veh, DNAJC13 / RFU, GNAQ / Fold change vs veh, GNAQ / RFU, CDK5R1 / Fold change vs veh, CDK5R1 / RFU, ZRANB3 / Fold change vs veh, ZRANB3 / RFU, CUL4A / Fold change vs veh, CUL4A / RFU, CCNY / Fold change vs veh, CCNY / RFU, UFL1 / Fold change vs veh, UFL1 / RFU, COG3 / Fold change vs veh, COG3 / RFU, DIAPH2 / Fold change vs veh, DIAPH2 / RFU, SKA2 / Fold change vs veh, SKA2 / RFU, AFF3 / Fold change vs veh, AFF3 / RFU, LMF1 / Fold change vs veh, LMF1 / RFU, IPO11 / Fold change vs veh, IPO11 / RFU, DFFB / Fold change vs veh, DFFB / RFU, FOXP1 / Fold change vs veh, FOXP1 / RFU, CARD8 / Fold change vs veh, CARD8 / RFU, STRN3 / Fold change vs veh, STRN3 / RFU, ADK / Fold change vs veh, ADK / RFU, RASSF2 / Fold change vs veh, RASSF2 / RFU, WIPF1 / Fold change vs veh, WIPF1 / RFU, LARP1B / Fold change vs veh, LARP1B / RFU, RASA1 / Fold change vs veh, RASA1 / RFU, RB1 / Fold change vs veh, RB1 / RFU, PPFIA1 / Fold change vs veh, PPFIA1 / RFU, MAT2A / Fold change vs veh, MAT2A / RFU, CCT5 / Fold change vs veh, CCT5 / RFU, WDR92 / Fold change vs veh, WDR92 / RFU, CUX1 / Fold change vs veh, CUX1 / RFU, TTC7A / Fold change vs veh, TTC7A / RFU, TMEM135 / Fold change vs veh, TMEM135 / RFU, DEPTOR / Fold change vs veh, DEPTOR / RFU, CPM / Fold change vs veh, CPM / RFU, DNAJB6 / Fold change vs veh, DNAJB6 / RFU, CACNA2D3 / Fold change vs veh, CACNA2D3 / RFU, DTX4 / Fold change vs veh, DTX4 / RFU, TFCP2 / Fold change vs veh, TFCP2 / RFU, GMCL1 /// GMCL1P1 / Fold change vs veh, GMCL1 /// GMCL1P1 / RFU, AEBP2 / Fold change vs veh, AEBP2 / RFU, SNHG1 /// SNORD22 /// SNORD25 /// SNORD26 /// SNORD27 /// SNORD28 /// SNORD29 /// SNORD31 / Fold change vs veh, SNHG1 /// SNORD22 /// SNORD25 /// SNORD26 /// SNORD27 /// SNORD28 /// SNORD29 /// SNORD31 / Fold change (Aza/veh), C12orf56 (ProbeSet 11735607_a_at) / Fold change (ACY-1035/veh), C12orf56 (ProbeSet 11735607_a_at) / Fold change (Aza/veh), FGFR1OP (ProbeSet 11751329_s_at) / Fold change (ACY-1035/veh), FGFR1OP (ProbeSet 11751329_s_at) / Fold change (Aza/veh), VPS36 (ProbeSet 11739960_a_at) / Fold change (ACY-1035/veh), VPS36 (ProbeSet 11739960_a_at) / RFU SYPL1 (11715823_x_at) / Fold change /veh SYPL1 (11715823_x_at) / RFU IGFBP7 (11715501_s_at) / Fold change /veh IGFBP7 (11715501_s_at) / RFU REEP3 (11722064_at) / Fold change /veh REEP3 (11722064_at) / RFU IGLL1 (11728026_x_at) / Fold change /veh IGLL1 (11728026_x_at): dose or concentration left out as unconfirmed. The conditions noted are these: ProbeSet 11724877_a_at; LIST D.

For the molecule `Nc1ccc(-c2cccs2)cc1NC(=O)c1ccc2c(c1)cc(C1CC1)n2CCN1CCOCC1` [ACY-1035], the “RFU, AEBP2” value was found to be 30.16 RFU.
